From article PMC2753751 (Bioorganic & medicinal chemistry letters, 2009)

Legend:
[1] = tested on: A549 human lung carcinoma cell line; assay: cytotoxicity with A549 cell monolayers; format: cell-based
Pneumocystis carinii [2] = conditions: read-out: IC50 P. carinii; P. carinii obtained from rat lungs; ref [15]; cited from earlier work
Pneumocystis carinii [3] = assay: in vitro inhibition of Pneumocystis carinii; format: cell-based; conditions: ratio of cytotoxic A549 IC50 to P. carinii IC50
Pneumocystis = conditions: immunosuppressed mouse, 20 mg/kg and 40 mg/kg doses; ref [1]; cited from earlier work
[4] = tested on: Trypanosoma brucei rhodesiense KETRI 243; assay: in vitro inhibition of Trypanosoma brucei rhodesiense; format: cell-based; conditions: T.b. rhodesiense KETRI 243 versus T.b. brucei LAB 110

| Molecule | cytotoxicity against the A549 cell line (in words) [1] | IC50 (Pneumocystis carinii [2]) | further results |
| --- | --- | --- | --- |
| N=C(N)c1ccc(NC(=O)CCCCC(=O)Nc2cccc(C(=N)N)c2)cc1 [Compound 8] | very low cytoxicity | – | – |
| N=C(N)c1ccc(NC(=O)CCCCCC(=O)Nc2ccc(C(=N)N)cc2)cc1 [Compound 9] | very low cytoxicity | – | – |
| N=C(N)c1ccc(NC(=O)CCCCCCC(=O)Nc2ccc(C(=N)N)cc2)cc1 [Compound 10] | very low cytoxicity | – | – |
| N=C(N)c1ccc(NC(=O)CCCCCCCCC(=O)Nc2ccc(C(=N)N)cc2)cc1 [Compound 12] | very low cytoxicity | – | – |
| N=C(N)c1ccc(OCCCCCOc2ccc(C(=N)N)cc2)cc1 [Pentamidine, reference compound] | – | 0.5 µM | – |
| N,N′-bis[4-(aminoiminomethyl)phenyl] hexanediamide [Compound 4] | – | 0.002 µM | IC50 [1]: 1190 µM; selectivity index for P. carinii (SIP.c) (Pneumocystis carinii [3]): 596,500 |
| N,N′-bis[4-(aminoiminomethyl)phenyl] pentanediamide, dihydrochloride salt [Compound 2] | very low cytoxicity | 0.003 µM | selectivity index for P. carinii (SIP.c) (Pneumocystis carinii [3]): 758,667; reductions in organism burden (Pneumocystis): > 1,000 fold; fold less active against the resistant strain [4]: about 11 fold |
